According to patent US7888360B2, “Pyridine and pyrimidine derivatives as inhibitors of histone deacetylase” (Janssen Pharmaceutica N.V., priority 2006, dated 2011):
≈ marks a conversion by molar mass, not a printed value. Where two headings read alike, the source gives them in different places.

What was measured:
[1] = biological target: histone deacetylase (HeLa nuclear extracts); experiment: In vitro assay for inhibition of histone deacetylase (Fluor de Lys, HeLa nuclear extracts); type: biochemical; design: key: pIC50 = negative log of IC50; settings: Fluor de Lys substrate
Text: The HDAC Fluorescent Activity Assay/Drug Discovery Kit of Biomol (cat. No: AK-500-0001) was used. The HDAC Fluorescent Activity Assay is based on the Fluor de Lys (Fluorogenic Histone deAcetylase Lysyl) substrate and developer combination. The Fluor de Lys substrate, comprises an acetylated lysine side chain. Deacetylation of the substrate sensitizes the substrate so that, in the second step, treatment with the Fluor de Lys developer produces a fluorophore.
HeLa nuclear extracts (supplier: Biomol) were incubated at 60 μg/ml with 75 μM of substrate. The Fluor de Lys substrate was added in a buffer containing 25 mM Tris, 137 mM NaCl, 2.7 mM KCl and 1 mM MgCl2.6H2O at pH 7.4. After 30 min, 1 volume of the developer was added. The fluorophore was excited with 355 nm light and the emitted light (450 nm) was be detected on a fluorometric plate reader.
For each experiment, controls (containing HeLa nuclear extract and buffer), a blank incubation (containing buffer but no HeLa nuclear extract) and samples (containing compound dissolved in DMSO and further diluted in buffer and HeLa nuclear extract) were run in parallel. In first instance, compounds were tested at a concentration of 10^−5M. […] All sample were tested 4 times. In each test the blank value was subtracted from both the control and the sample values. The control sample represented 100% of substrate deactylation. For each sample the fluorescence was expressed as a percentage of the mean value of the controls. […] Herein the effects of test compounds are expressed as pIC50 (the negative log value of the IC50-value) (see Table F-2).

[2] = test system: A2780 ovarian carcinoma cells; experiment: Antiproliferative activity on A2780 cells (MTT); type: cell-based, human; settings: four days of incubation; for IC50: Homo sapiens, A2780, 96 h, read-out: Cellular activity pIC50 C.2. (converted)
Procedure: All compounds tested were dissolved in DMSO and further dilutions were made in culture medium. Final DMSO concentrations never exceeded 0.1% (v/v) in cell proliferation assays. Controls contained A2780 cells and DMSO without compound and blanks contained DMSO but no cells. MTT was dissolved at 5 mg/ml in PBS. A glycine buffer comprised of 0.1 M glycine and 0.1 M NaCl buffered to pH 10.5 with NaOH (1 N) was prepared (all reagents were from Merck).
The human A2780 ovarian carcinoma cells (a kind gift from Dr. T. C. Hamilton [Fox Chase Cancer Centre, Pa., USA]) were cultured in RPMI 1640 medium supplemented with 2 mM L-glutamine, 50 μg/ml gentamicin and 10% fetal calf serum. Cells were routinely kept as monolayer cultures at 37° C. in a humidified 5% CO2 atmosphere. Cells were passaged once a week using a trypsin/EDTA solution at a split ratio of 1:40. All media and supplements were obtained from Life Technologies. Cells were free of mycoplasma contamination as determined using the Gen-Probe Mycoplasma Tissue Culture kit (supplier: BioMérieux).
Cells were seeded in NUNC™ 96-well culture plates (Supplier: Life Technologies) and allowed to adhere to the plastic overnight. Densities used for plating were 1500 cells per well in a total volume of 200 μl medium. After cell adhesion to the plates, medium was changed and drugs and/or solvents were added to a final volume of 200 μl. Following four days of incubation, medium was replaced by 200 μl fresh medium and cell density and viability was assessed using an MTT-based assay. To each well, 25 μl MTT solution was added and the cells were further incubated for 2 hours at 37° C. The medium was then carefully aspirated and the blue MTT-formazan product was solubilized by addition of 25 μl glycine buffer followed by 100 μl of DMSO. […] Within an experiment, the results for each experimental condition are the mean of 3 replicate wells. For initial screening purposes, compounds were tested at a single fixed concentration of 10^−6 M. For active compounds, the experiments were repeated to establish full concentration-response curves. For each experiment, controls (containing no drug) and a blank incubation (containing no cells or drugs) were run in parallel. The blank value was subtracted from all control and sample values. For each sample, the mean value for cell growth (in absorbance units) was expressed as a percentage of the mean value for cell growth of the control. […] Herein the effects of test compounds are expressed as pIC50 (the negative log value of the IC50-value) (see Table F-2).

[3] = Kinetic solubility in aqueous media C.3.b (BD Gentest Solubility Scanner); type: physicochemical; settings: aqueous buffer
Procedure: DMSO-stock solutions from 5000-9.8 μM (1/2 dilutions) are made in DMSO in a 96 well stock solution plate (200 μl per well). After each dilution the samples are mixed. Aliquots of these DMSO solutions (2 μl) are then transferred into 2 other 96 well buffer plates, containing 200 μl per well aqueous buffer. Each of the buffer plates contains either aqueous buffer pH 7.4 or aqueous buffer pH 4.0. After the last dilution the buffer plates are mixed and the samples are stabilized at room temperature for ½ hour. Dilution is done in duplicate for each compound to exclude occasional errors. Mixtures are then scanned in the BD Gentest Solubility Scanner for the occurrence of precipitation. Based on the absence/presence of precipitate in the mixtures the kinetic solubility is calculated by interpolation. Ranking is performed into the 3 classes. […] (see Table F-2).

[4] = Solubility C.3.c (chemiluminescent nitrogen detector); type: physicochemical; settings: aqueous buffer; pH = 2.3; read-out: Solubility C.3.c. pH = 2.3 mg/ml
Text: The solubility of a compound, at different pH's, can also be measured with the use of a chemiluminescent nitrogen detector (see Table F-2).

[5] = not given; remark: listed apart in the source
[6] = Kinetic solubility in aqueous media C.3.a (nephelometer); type: physicochemical; settings: aqueous buffer, kinetic from dmso stock; phosphate citrate buffer pH 7.4, turbidity score
Procedure: In the first dilution step, 10 μl of a concentrated stock-solution of the active compound, solubilized in DMSO (5 mM), was added to 100 μl phosphate citrate buffer pH 7.4 and mixed. In the second dilution step, an aliquot (20 μl) of the first dilution step was further dispensed in 100 μl phosphate citrate buffer pH 7.4 and mixed. Finally, in the third dilution step, a sample (20 μl) of the second dilution step was further diluted in 100 μl phosphate citrate buffer pH 7.4 and mixed. All dilutions were performed in 96-well plates. Immediately after the last dilution step the turbidity of the three consecutive dilution steps were measured with a nephelometer. Dilution was done in triplicate for each compound to exclude occasional errors. Based on the turbidity measurements a ranking is performed into 3 classes. Compounds with high solubility obtained a score of 3 and for this compounds the first dilution is clear. Compounds with medium solubility obtained a score of 2. For these compounds the first dilution is unclear and the second dilution is clear.

[7] = test system: p21 promoter reporter A2780 clone tumour; experiment: p21 induction in vivo method C.6.c (tumour fluorescence in nude mice); settings: dosed orally or intravenously daily during 6 days, 20-40 mpk
Procedure: Another method tests the capacity of compounds to induce p21 as the consequence of HDAC inhibition at the cellular level. […] The reporter gene is a fluorescent protein and the expression of the reporter gene is measured as the amount of fluorescent light emitted (see example C.6.b.). The last method is an in vivo method wherein mice are used for screening the pharmaceutical activity of a compound. The above described stably transformed tumour cells can be administered to mice in an amount sufficient to effect production of a tumour. After the tumour cells had sufficient time to form a tumour, a potentially active compound can be administered to the animals and the effect of said compound on the tumour cells is evaluated by measuring the expression of the reporter gene. Incubation with pharmaceutical active compounds will result in an increase of reporter gene expression compared to the control levels (see example C.6.c.)
A selected clone was injected subcutaneous (10^7 cells/200 μl) into the flank of nude mice and a calliper measurable tumour was obtained after 12 days. […] Tumours were evaluated for fluorescence by the in-house developed Automated Whole Body Imaging System (Fluorescent stereomicroscope type Olympus® SZX12 equipped with a GFP filter and coupled to a CCD camera type JAI® CV-M90 controlled by a software package based on the IMAQ Vision Software from National Instruments®).

[8] = kinetic from dmso stock, pH = 4, score, read-out: Solubility C.3.b pH = 4.
[9] = pH 7.4, kinetic from dmso stock, pH = 7, score, read-out: Solubility C.3.b. pH = 7

| Compound | % metabolism (human, 15 min, 5 μM) | Enzymatic activity pIC50 C.1. [1] | IC50 [2] | solubility at 0.5 h [3, 8] | solubility at 0.5 h [3, 9] | solubility [4] | melting point [5] | solubility [6] | tumour fluorescence (p21 reporter) in vivo [7] | Cellular activity pIC50 C.2. [2] | % metabolism (after 15 min of incubation with active microsomes, compound 5 μM) |
| --- | --- | --- | --- | --- | --- | --- | --- | --- | --- | --- | --- |
| COc1cc(N)c(Cl)cc1C(=O)NC1CCN(CCCOc2ccc(F)cc2)CC1OC (stereo not drawn) [Cisapride] | 45% | – | – | – | – | – | – | – | – | – | – |
| O=C(NO)c1cnc(N2CCN(C(CO)c3cccc4ccccc34)CC2)nc1 (stereo not drawn) [Compound 1] | – | 10.0 | 100 nM | 10 to 50 µM (≈ 3.93 to 19.7 µg/mL) | 10 to 50 µM (≈ 3.93 to 19.7 µg/mL) | 2900 µg/mL (≈ 7.37 mM) | 136 °C | – | – | – | – |
| O=C(NO)c1cnc(N2CCN(C(CO)c3cc4ccccc4s3)CC2)nc1 (stereo not drawn) [Compound 2] | – | 10.1 | 15.8 nM | ≤ 10 µM | 10 to 50 µM (≈ 3.99 to 20 µg/mL) | 3250 µg/mL (≈ 8.14 mM) | 165 °C | – | – | – | – |
| O=C(NO)c1cnc(N2CCN(C(CO)c3cn(S(=O)(=O)c4ccccc4)c4ccccc34)CC2)nc1 (stereo not drawn) [Compound 3] | – | >9 | < 31.6 nM | 10 to 50 µM (≈ 5.23 to 26.1 µg/mL) | 10 to 50 µM (≈ 5.23 to 26.1 µg/mL) | – | 206 °C | – | – | – | – |
| CCN(CC1CCN(c2ncc(C(=O)NO)cn2)CC1)C(CO)c1cc2ccccc2o1 (stereo not drawn) [Compound 4] | – | 7.9 | 251 nM | ≤ 10 µM | 10 to 50 µM (≈ 4.4 to 22 µg/mL) | – | 90 °C | – | – | – | – |
| CC(C)(C)c1ccc(C(C(O)CO)N2CCN(c3ncc(C(=O)NO)cn3)CC2)cc1 (stereo not drawn) [Compound 5] | – | 7.5 | 100 nM | – | – | 1390 µg/mL (≈ 3.24 mM) | 138 to 154 °C | – | – | – | – |
| CC(C)(C)c1ccc([C@H]([C@H](O)CO)N2CCN(c3ncc(C(=O)NO)cn3)CC2)cc1 [Compound 6] | – | 7.9 | 39.8 nM | – | – | 900 µg/mL (≈ 2.1 mM) | 163 to 171 °C | > 455 µM | comparable to R306465 | – | – |
| O=C(NO)c1cnc(N2CCN(C(CO)c3ccc4ccccc4c3)CC2)nc1 (stereo not drawn) [Compound 7] | – | 9.7 | 20 nM | ≤ 10 µM | ≤ 10 µM | – | – | – | – | – | – |
| O=C(NO)c1cnc(N2CCN(C(CO)c3cc4ccccc4o3)CC2)nc1 (stereo not drawn) [Compound 8] | – | 9.0 | 31.6 nM | 10 to 50 µM (≈ 3.83 to 19.2 µg/mL) | 10 to 50 µM (≈ 3.83 to 19.2 µg/mL) | 2200 µg/mL (≈ 5.74 mM) | – | – | – | – | – |
| O=C(NO)c1cnc(N2CCN(C(CO)c3csc4ccccc34)CC2)nc1 (stereo not drawn) [Compound 9] | – | 9.8 | 50.1 nM | – | – | – | – | – | – | – | – |
| CC(C)(C)c1ccc(C(C(O)CO)N2CCN(c3ncc(C(=O)NO)cn3)CC2)cc1 (stereo not drawn) [Compound 10] | – | 7.0 | – | – | – | – | – | > 455 µM | – | 7.1 | – |
| CCCO [propanol] | – | – | – | – | – | – | – | – | – | – | 25% |
